Test results taken from patent publication US4200626A, “Haloplatinate dental composition for preventing and inhibiting dental caries” (Toyo Seiyaku Kasei Co., Ltd., priority 1978, dated 1980).

Tests used:
[1] = tested on: protease (collagenase or trypsin); assay: Inhibition of protease digestion of the soft tissue in dentin (clear zone on opaque agar plates with decalcified dentin powder); format: biochemical; settings: for Clear zone: aqueous solution pH 5.4
Method: The ability to inhibit digestion of the soft tissue in dentin was estimated according to the method described by Yanagida et al [Yanagida et al, Shonishikagaku Zasshi, Vol. 9, page 39 (1971)]. That is, firstly, a certain amount of human decalcified dentin powder was treated with a composition to be tested for certain minutes and then unbonded excess components were removed by dialysis to obtain a sample powder. Then, opaque agar plates were prepared by adding the sample powder, and a protease (collagenase or trypsin) was added to the plates. The inhibiting ability was estimated by observing whether a clear zone was formed on the plate or not. The clear zone is formed by dissolution of the powder with the enzyme, and the formation thereof means digestion of the soft tissue in dentin.
Each composition used in the test is an aqueous solution at pH 5.4.

[2] = Inhibition of acid decalcification of the hard tissue in dentin (human dentin powder); settings: for Inhibition rate of decalcification: solution containing 2% platinum (or saturated) or 2% NaF, pH 5.4
Method: The ability to inhibit decalcification of the hard tissue was also estimated according to the method described by Nishino [Nishino, Osaka University Shigaku Zasshi, Vol. 1, page 1 (1969)]. That is, firstly, a certain amount of human dentin powder was treated with a composition to be tested for certain minutes and then unbonded excess components were removed by washing with water to obtain a sample powder. Then, the sample powder was treated with an acid solution (decalcification) and the amount of calcium in the solution, which was dissolved in the solution by action of the acid, was determined (sample calcium content). Similarly, untreated dentin powder was added to an acid solution and the amount of calcium in the acid solution was determined (control calcium content). From these values, the inhibition rate of decalcification was calculated as follows: [formula]
As a reference, a similar test was done by using an aqueous solution containing 2% of sodium fluoride (pH 5.4).

mice = assay: LD50 in mice (p.o.); format: in vivo
From the text: Further, the dental composition of the present invention is useful from a viewpont of toxicity since these platinum compounds have lower toxicity than that of NaF.

## [Cl][Pt-2]([Cl])([Cl])[Cl].[K+].[K+] [K2 PtCl4, potassium tetrachloroplatinate]
[1]; platinum content 0.001%
  Clear zone: Present
[1]; platinum content 0.01%
  Clear zone: None
[1]; platinum content 0.1%
  Clear zone: None
[2]; decalcification time 0.5 hour
  Inhibition rate of decalcification: 27.28%
[2]; decalcification time 1.0 hour
  Inhibition rate of decalcification: 28.11%
[2]; decalcification time 1.5 hour
  Inhibition rate of decalcification: 30.86%
[2]; decalcification time 2.0 hour
  Inhibition rate of decalcification: 29.65%
[2]; decalcification time 3.0 hour
  Inhibition rate of decalcification: 30.22%
[2]; decalcification time 5.0 hour
  Inhibition rate of decalcification: 31.54%
[2]; decalcification time 24.0 hour
  Inhibition rate of decalcification: 31.69%
[2]; decalcification time 48.0 hour
  Inhibition rate of decalcification: 32.27%
mice
  LD50 (p.o.): 97 mg per kg of body weight

## [I-].[I-].[I-].[I-].[I-].[I-].[K+].[K+].[Pt+4] [K2 PtI6, potassium hexaiodoplatinate]
[1]; platinum content 0.001%
  Clear zone: Present
[1]; platinum content 0.01%
  Clear zone: None
[1]; platinum content 0.1%
  Clear zone: None

## [F-].[Na+] [NaF, sodium fluoride, reference compound]
[1]; similar test using sodium fluoride, result in words
  inhibition of the digestion: no inhibition of the digestion was observed
[2]; decalcification time 0.5 hour
  Inhibition rate of decalcification: 40.03%
[2]; decalcification time 1.0 hour
  Inhibition rate of decalcification: 43.29%
[2]; decalcification time 1.5 hour
  Inhibition rate of decalcification: 44.12%
[2]; decalcification time 2.0 hour
  Inhibition rate of decalcification: 44.02%
[2]; decalcification time 3.0 hour
  Inhibition rate of decalcification: 44.33%
[2]; decalcification time 5.0 hour
  Inhibition rate of decalcification: 44.79%
[2]; decalcification time 24.0 hour
  Inhibition rate of decalcification: 44.93%
[2]; decalcification time 48.0 hour
  Inhibition rate of decalcification: 45.45%
mice
  LD50 (p.o.): about 90 mg per kg of body weight

## [Cl][Pt-2]([Cl])([Cl])([Cl])([Cl])[Cl].[Na+].[Na+] [Na2 PtCl6, sodium hexachloroplatinate]
[1]; platinum content 0.001%
  Clear zone: Present
[1]; platinum content 0.01%
  Clear zone: None
[1]; platinum content 0.1%
  Clear zone: None
[2]; decalcification time 0.5 hour
  Inhibition rate of decalcification: 43.42%
[2]; decalcification time 1.0 hour
  Inhibition rate of decalcification: 45.23%
[2]; decalcification time 1.5 hour
  Inhibition rate of decalcification: 45.15%
[2]; decalcification time 2.0 hour
  Inhibition rate of decalcification: 45.36%
[2]; decalcification time 3.0 hour
  Inhibition rate of decalcification: 47.57%
[2]; decalcification time 5.0 hour
  Inhibition rate of decalcification: 47.77%
[2]; decalcification time 24.0 hour
  Inhibition rate of decalcification: 48.00%
[2]; decalcification time 48.0 hour
  Inhibition rate of decalcification: 48.20%
[2]; result in words, from Table 2
  inhibiting effect on decalcification of the hard tissue in dentin: superior inhibiting effect to that containing NaF at every decalcification time and the effect thereof is not decreased even though after 48 hours
mice
  LD50 (p.o.): 130 mg per kg of body weight

## [Cl][Pt-2]([Cl])([Cl])([Cl])([Cl])[Cl].[NH4+].[NH4+] [(NH4)2 PtCl6, ammonium hexachloroplatinate]
[1]; platinum content 0.001%
  Clear zone: Present
[1]; platinum content 0.01%
  Clear zone: None
[1]; platinum content 0.1%
  Clear zone: None
